In patent publication US12478617B2, “Lipidated peptide inhibitors of interleukin-23 receptor” (JANSSEN BIOTECH, INC., priority 2021, dated 2025):
Starred links: 1 amine or outer side, 2 acyl side, 3 side chain; linkers in the order of their positions; H or OH if unused. Positions of bridges follow the written chain, without caps; N, C: chain ends. Non-standard residues stand in square brackets, D forms with d. Residues, ends and D or L forms follow the SMILES beside them. Groups on a side chain read outwards from the residue. *: point of attachment. Trp(7-Me) = Cc1cccc2c(C[C@H](N)C(=O)O)c[nH]c12; C18 diacid = O=C(O)CCCCCCCCCCCCCCCCC(=O)*; C16 diacid = O=C(O)CCCCCCCCCCCCCCC(=O)*; γGlu = O=C(O)[C@H](CCC(=O)[*:2])N[*:1]; 2Nal = N[C@@H](Cc1ccc2ccccc2c1)C(=O)O; AEF = NCCOc1ccc(C[C@H](N)C(=O)O)cc1; 3Pal = N[C@@H](Cc1cccnc1)C(=O)O; Pen = CC(C)(S)[C@H](N)C(=O)O; Thp = NC1(C(=O)O)CCOCC1; AEEA = NCCOCCOCC(=O)O; Sar = CNCC(=O)O

target: T1, IL-23R (Homo sapiens, UniProt Q5VWK5); test: IL23R Reporter Assay; assay type: cell-based
T1 construct: HEK293 cells containing IL-23R, IL-12RP31 and a firefly luciferase reporter gene driven by a STAT-inducible promoter (Promega); host or cells: HEK293
T1 sequence (Q5VWK5 24-629): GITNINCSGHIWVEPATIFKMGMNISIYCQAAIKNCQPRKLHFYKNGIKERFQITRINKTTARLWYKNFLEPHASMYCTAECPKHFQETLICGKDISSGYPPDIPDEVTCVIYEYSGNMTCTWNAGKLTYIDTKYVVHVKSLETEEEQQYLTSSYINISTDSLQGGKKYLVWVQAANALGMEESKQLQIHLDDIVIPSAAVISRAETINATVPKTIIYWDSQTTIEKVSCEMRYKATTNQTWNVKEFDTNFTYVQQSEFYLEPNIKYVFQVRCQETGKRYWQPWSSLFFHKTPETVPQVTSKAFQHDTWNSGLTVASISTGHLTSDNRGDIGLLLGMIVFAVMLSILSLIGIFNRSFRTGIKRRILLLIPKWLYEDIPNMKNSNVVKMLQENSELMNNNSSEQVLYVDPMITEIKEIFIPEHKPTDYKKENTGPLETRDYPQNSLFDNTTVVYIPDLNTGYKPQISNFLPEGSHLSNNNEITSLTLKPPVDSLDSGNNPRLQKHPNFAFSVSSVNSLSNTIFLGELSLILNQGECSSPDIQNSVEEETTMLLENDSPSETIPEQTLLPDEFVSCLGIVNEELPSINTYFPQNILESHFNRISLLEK
From the text: IL-23 binding to IL-23 receptors results in the activation of the Signal Transducer and Activator of Transcription 3 (STAT3) by phosphorylation and downstream signaling events. Accordingly. the ability of the inhibitors described herein to block IL-23 action can be assessed by monitoring the status of STAT3 activation in response to IL-23. This may be accomplished in reporter cell assays or in intact cells such as peripheral blood mononuclear cells (PBMCs).
Compounds were serially diluted in 100% (v/v) DMSO) and plated using an Echo acoustic dispenser (Labcyte) into 1536-well non-treated black assay plates (Corning #9146). […] After 5 h at 37° C., 5% CO2, 95% relative humidity, cells were placed at 20° C. and treated with BioGlo reagent (Promega) according to the Manufacturer's instructions. Luminescence was measured on a Pherastar FSX (BMG LabTech).

Row | SMILES | IC50
1 | CC(=O)NCCCC[C@@H]1NC(=O)[C@H](Cc2c[nH]c3c(C)cccc23)NC(=O)[C@H]([C@@H](C)O)NC(=O)[C@H](CCCCNC(=O)COCCOCCNC(=O)CC[C@H](NC(=O)CCCCCCCCCCCCCCCCC(=O)O)C(=O)O)NC(=O)[C@@H](NC(=O)[C@@H](CCCNC(=N)N)NC(C)=O)C(C)(C)SSC(C)(C)[C@@H](C(=O)N[C@@H](Cc2ccc(OCCN)cc2)C(=O)N[C@@H](Cc2ccc3ccccc3c2)C(=O)NC2(C(=O)N[C@@H](CCCCNC(C)=O)C(=O)N[C@@H](CC(N)=O)C(=O)N[C@@H](Cc3cccnc3)C(=O)N(C)CC(N)=O)CCOCC2)NC1=O [Example 52, MeCO-r-Pen*-K(PEG2gE C18OH)-T-7MeW-K(Ac)-Pen*-AEF-2Nal-THP-K(Ac)-N-3Pya-Sar-CONH2] (Ac-[dR][Pen]K([AEEA-γGlu-C18 diacid])T[Trp(7-Me)]K(Ac)[Pen][AEF][2Nal][Thp]K(Ac)N[3Pal][Sar]-NH2; disulfide 2-7) | 150 pM
2 | CC(=O)NCCCC[C@H](NC(=O)C1(NC(=O)[C@H](Cc2ccc3ccccc3c2)NC(=O)[C@H](Cc2ccc(OCCN)cc2)NC(=O)[C@H]2NC(=O)[C@H](CCCCNC(=O)COCCOCCNC(=O)COCCOCCNC(=O)CC[C@H](NC(=O)CCCCCCCCCCCCCCCCC(=O)O)C(=O)O)NC(=O)[C@H](Cc3c[nH]c4c(C)cccc34)NC(=O)[C@H]([C@@H](C)O)NC(=O)[C@H](CC(N)=O)NC(=O)[C@@H](NC(=O)[C@@H](CCCNC(=N)N)NC(C)=O)C(C)(C)SSC2(C)C)CCOCC1)C(=O)N[C@@H](CC(N)=O)C(=O)N[C@@H](Cc1cccnc1)C(=O)N(C)CC(N)=O [Example 88, MeCO-r-Pen*-N-T-7MeW-K(PEG2PEG2gEC18OH)-Pen*-AEF-2Nal-THP-K(Ac)-N-3Pya-Sar-CONH2] (Ac-[dR][Pen]NT[Trp(7-Me)]K([AEEA-AEEA-γGlu-C18 diacid])[Pen][AEF][2Nal][Thp]K(Ac)N[3Pal][Sar]-NH2; disulfide 2-7) | 200 pM
3 | CC(=O)NCCCC[C@@H]1NC(=O)[C@H](Cc2c[nH]c3c(C)cccc23)NC(=O)[C@H]([C@@H](C)O)NC(=O)[C@H](CC(N)=O)NC(=O)[C@@H](NC(=O)[C@@H](CCCNC(=N)N)NC(=O)COCCOCCNC(=O)COCCOCCNC(=O)CC[C@H](NC(=O)CCCCCCCCCCCCCCC(=O)O)C(=O)O)C(C)(C)SSC(C)(C)[C@@H](C(=O)N[C@@H](Cc2ccc(OCCN)cc2)C(=O)N[C@@H](Cc2ccc3ccccc3c2)C(=O)NC2(C(=O)N[C@@H](CCCCNC(=O)COCCOCCNC(=O)COCCOCCNC(=O)CC[C@H](NC(=O)CCCCCCCCCCCCCCC(=O)O)C(=O)O)C(=O)N[C@@H](CC(N)=O)C(=O)N[C@@H](Cc3cccnc3)C(=O)N(C)CC(N)=O)CCOCC2)NC1=O [Example 37, HOC16gEPEG2PEG2-r-Pen*-N-T-7MeW-K(Ac)-Pen*-AEF-2Nal-THP-K(PEG2PEG2gEC16OH)-N-3Pya-Sar-CONH2] ({C16 diacid-γGlu-AEEA-AEEA}-[dR][Pen]NT[Trp(7-Me)]K(Ac)[Pen][AEF][2Nal][Thp]K([AEEA-AEEA-γGlu-C16 diacid])N[3Pal][Sar]-NH2; disulfide 2-7) | 190 pM
4 | CC(=O)NCCCC[C@@H]1NC(=O)[C@H](Cc2c[nH]c3c(C)cccc23)NC(=O)[C@H]([C@@H](C)O)NC(=O)[C@H](CCCCNC(=O)COCCOCCNC(=O)COCCOCCNC(=O)CC[C@H](NC(=O)CCCCCCCCCCCCCCC(=O)O)C(=O)O)NC(=O)[C@@H](NC(=O)[C@@H](CCCNC(=N)N)NC(C)=O)C(C)(C)SSC(C)(C)[C@@H](C(=O)N[C@@H](Cc2ccc(OCCN)cc2)C(=O)N[C@@H](Cc2ccc3ccccc3c2)C(=O)NC2(C(=O)N[C@@H](CCC(=O)O)C(=O)N[C@@H](CC(N)=O)C(=O)N[C@@H](Cc3cccnc3)C(=O)N(C)CC(N)=O)CCOCC2)NC1=O [Example 21, MeCO-r-Pen*-K(PEG2PEG2gEC16OH)-T-7MeW-K(Ac)-Pen*-AEF-2Nal-THP-E-N-3Pya-Sar-CONH2] (Ac-[dR][Pen]K([AEEA-AEEA-γGlu-C16 diacid])T[Trp(7-Me)]K(Ac)[Pen][AEF][2Nal][Thp]EN[3Pal][Sar]-NH2; disulfide 2-7) | 33 pM
